We go through 25 compounds from US20070232601A1, “Vla-4 Inhibitor” (priority 2004, published 2007).

T1 sequence (P13612 34-1032): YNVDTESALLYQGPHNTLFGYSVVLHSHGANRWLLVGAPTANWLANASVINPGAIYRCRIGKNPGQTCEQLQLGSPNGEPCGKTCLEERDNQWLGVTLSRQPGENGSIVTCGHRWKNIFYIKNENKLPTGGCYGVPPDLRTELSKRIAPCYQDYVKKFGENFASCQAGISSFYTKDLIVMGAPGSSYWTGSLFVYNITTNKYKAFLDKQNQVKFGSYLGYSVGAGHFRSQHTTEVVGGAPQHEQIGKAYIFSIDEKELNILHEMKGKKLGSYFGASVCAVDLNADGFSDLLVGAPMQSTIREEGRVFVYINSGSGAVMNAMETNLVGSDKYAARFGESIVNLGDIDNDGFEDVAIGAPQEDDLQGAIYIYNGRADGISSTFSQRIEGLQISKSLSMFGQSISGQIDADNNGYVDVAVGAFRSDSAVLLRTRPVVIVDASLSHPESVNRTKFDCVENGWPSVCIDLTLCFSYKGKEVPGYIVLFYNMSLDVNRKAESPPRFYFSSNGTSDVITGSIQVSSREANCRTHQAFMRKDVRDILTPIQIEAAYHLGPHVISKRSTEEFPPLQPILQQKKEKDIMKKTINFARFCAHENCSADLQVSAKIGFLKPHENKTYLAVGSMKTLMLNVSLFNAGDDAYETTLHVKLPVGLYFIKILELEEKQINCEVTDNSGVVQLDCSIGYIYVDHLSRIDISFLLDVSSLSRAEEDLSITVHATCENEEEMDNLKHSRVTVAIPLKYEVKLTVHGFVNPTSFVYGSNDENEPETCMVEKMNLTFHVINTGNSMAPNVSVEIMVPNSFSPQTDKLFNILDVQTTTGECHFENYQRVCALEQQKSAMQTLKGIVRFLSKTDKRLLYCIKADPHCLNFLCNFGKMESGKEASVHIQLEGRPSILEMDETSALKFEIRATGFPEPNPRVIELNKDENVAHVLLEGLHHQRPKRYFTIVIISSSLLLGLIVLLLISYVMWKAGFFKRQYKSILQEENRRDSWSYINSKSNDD
T1 sequence (P05556 21-798): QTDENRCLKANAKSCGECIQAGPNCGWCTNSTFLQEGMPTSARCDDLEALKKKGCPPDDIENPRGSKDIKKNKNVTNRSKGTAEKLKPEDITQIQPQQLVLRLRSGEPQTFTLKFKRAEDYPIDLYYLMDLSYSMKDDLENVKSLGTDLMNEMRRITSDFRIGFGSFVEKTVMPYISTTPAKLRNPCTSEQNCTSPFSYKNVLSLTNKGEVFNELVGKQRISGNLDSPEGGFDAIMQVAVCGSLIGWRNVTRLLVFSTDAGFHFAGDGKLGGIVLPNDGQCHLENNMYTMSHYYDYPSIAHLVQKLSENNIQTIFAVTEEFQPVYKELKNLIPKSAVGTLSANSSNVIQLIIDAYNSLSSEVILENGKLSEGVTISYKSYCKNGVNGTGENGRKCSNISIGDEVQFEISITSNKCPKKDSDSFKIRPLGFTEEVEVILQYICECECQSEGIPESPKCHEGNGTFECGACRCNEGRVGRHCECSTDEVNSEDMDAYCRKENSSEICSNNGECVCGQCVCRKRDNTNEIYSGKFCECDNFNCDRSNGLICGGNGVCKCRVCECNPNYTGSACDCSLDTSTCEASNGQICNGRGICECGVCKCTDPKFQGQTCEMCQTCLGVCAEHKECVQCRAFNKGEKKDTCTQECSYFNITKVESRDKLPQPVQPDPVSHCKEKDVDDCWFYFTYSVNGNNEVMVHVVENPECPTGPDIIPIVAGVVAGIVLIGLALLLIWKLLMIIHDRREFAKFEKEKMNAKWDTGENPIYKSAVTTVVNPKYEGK

The test has as its target T1, hα4 and β1 integrins (VLA-4) (Homo sapiens, UniProt P05556+P13612).
T1 construct: expressed in transfected cells; host or cells: CHO cells
Nature of the test: In vitro evaluation: inhibition of binding of CHO cells expressing hα4 and β1 integrins to Eu3+-hVCAM-1 D1D7-IgG. The conditions noted are these: ligand Eu3+-hVCAM-1 D1D7-IgG 2 nM, Ki calculated from IC50. Here is the method: CHO cells which were forced to be expressed by transduction of hα4 and β1 integrins are seeded (3×10^4 cells/100 μl/well) on a Costar 3599 plate, and cultured for 2 days. A medium is washed with a buffer A* two times, and Eu^3+-hVCAM-1 D1D7-IgG which was diluted with an assay buffer A** to 2 nM is added at 50 μl/well. A test substance which was diluted with 2% DMSO-assay buffer (in the presence or the absence of 6% human serum albumin) is added at 50 μl/well (A solution which was separately diluted is added to a well in which Scatchard analysis is performed), this is stirred with a plate mixer for 5 minutes, and allowed to stand at room temperature for 1 hour. Thereafter, this is washed with a buffer A four times, a potentiating reagent (manufactured by DELFIA) is added at 100 μl/well, this is shaken for 5 minutes using a plate mixer, and a fluorescence intensity is measured with a time-resolved fluorometer (DELFIA Wallac). IC50 (concentration at which binding of CHO cell and Eu^3+-hVCAM-1 D1D7-IgG is inhibited by 50%) of a test substance is obtained from an integration rate obtained from a calculation equation: [(FT−FNS)−(FI−FNS)]/[(FT−FNS)]×100, wherein FT indicates a fluorescence intensity of a well not containing a test substance, FNS indicates a fluorescence intensity of a well not containing a test substance and hVCAM-1 D1D7-IgG, and FI indicates a fluorescence intensity containing a test substance. A Kd value showing strength of binding and Bmax (maximum binding amount) were presumed in a range of 0.06 to 20 nM according to the Scachard analysis method. [formula]
A Ki value was calculated according to the above equation ([L] is ligand concentration)
[* buffer A: 25 mM HEPES (pH 7.5), 150 mM NaCl, 1 mM Ca^2+, 1 mM Mg^2+, 4 mM Mn^2+; ** assay buffer: 25 mM HEPES (pH 7.5), 150 mM NaCl, 1 mM Ca^2+, 1 mM Mg^2+, 4 mM Mn^2+, 0.1% BSA, 20 μM DTPA, with/without 6% ALBUMIN, HUMAN SERUM (C/NA-1653, SIGMA)]
The Ki is a dissociation constant, usually derived from enzyme kinetics or from competition with a known ligand. As to `COc1ccc(F)cc1Nc1nc2ccc(CC(=O)N3C[C@@H](OC)C[C@H]3c3ncc(CCC(=O)O)o3)c(F)c2o1` [Example 16, 3-[2-[1-[[7-Fluoro-2-(5-fluoro-2-methoxyphenylamino)-1,3-benzoxazol-6-yl]acetyl]-(4S)-methoxy-(2S)-pyrrolidinyl]-5-oxazolyl]propionic acid], the Ki is 22 nM.
For `CCO[C@H]1CCN(C(=O)Cc2cc(Cl)c(NC(=O)c3coc4ccccc34)cc2F)[C@@H]1c1ncc(CCC(=O)O)o1` [Example 101], the Ki was 9.8 nM.
Then `O=C(O)CCc1cnc([C@@H]2C[C@H](OC3CCC3)CN2C(=O)Cc2cc(Cl)c(NC(=O)c3coc4ccccc34)cc2Cl)s1` [Example 42, 3-[2-[1-[4-[(1-Benzofuran-3-ylcarbonyl)amino]-2,5-dichlorophenylacetyl]-(4S)-cyclobutoxy-(2S)-pyrrolidinyl]-5-thiazolyl]propionic acid], with 7 nM; and `Cc1ccc(F)cc1Nc1nc2ccc(CC(=O)N3[C@H](c4ncc(CCC(=O)O)s4)C[C@@H]4CCCC[C@@H]43)c(F)c2o1` [Example 62, 3-[2-[1-[7-Fluoro-2-(5-fluoro-2-methylphenyl)amino-6-benzoxazolylacetyl]-(2S)-octahydroindolyl]-5-thiazolyl]propionic acid], with 2.3 nM.
With `CO[C@H]1C[C@@H](c2ncc(CCC(=O)O)s2)N(C(=O)Cc2ccc3nc(Nc4cc(F)ccc4C)oc3c2F)C1` [Example 8], the Ki was 0.34 nM.
The figure for `CO[C@H]1C[C@@H](c2cc(CCC(=O)O)on2)N(C(=O)Cc2cc(Cl)c(NC(=O)c3csc4ccccc34)cc2F)C1` [Example 33, 3-[3-[1-[[4-[(3-Benzo[b]thienylcarbonyl)amino]-5-chloro-2-fluorophenyl]acetyl]-(4S)-methoxy-(2S)-pyrrolidinyl]-5-isoxazolyl]propionic acid] is 2 nM; for `CON(C)[C@H]1C[C@@H](c2ncc(CCC(=O)O)s2)N(C(=O)Cc2cc(Cl)c(NC(=O)c3csc4ccccc34)cc2F)C1` [Example 129, 3-[2-[1-[4-(3-Benzo[b]thiophenylcarbonylamino)-5-chloro-2-fluorophenylacetyl]-(4S)—N,O-dimethylhydroxylamino-(2S)-pyrrolidinyl]-5-thiazolyl]propionic acid] it is 2.4 nM; for `O=C(O)CCc1cnc([C@@H]2[C@@H](O)CCN2C(=O)Cc2cc(Cl)c(Nc3nc4ccccc4o3)cc2Cl)s1` [Example 118, 3-[2-[1-[4-(2-Benzoxazolyl)amino-2,5-dichlorophenyl]acetyl-(3S)-hydroxy-(2S)-pyrrolidinyl]-5-thiazolyl]propionic acid] it is 36 nM.
For the compound `CCOC[C@@H]1CC[C@@H](c2ncc(CCC(=O)O)s2)N1C(=O)Cc1ccc2nc(Nc3cc(F)ccc3OC)oc2c1F` [Example 52, 3-[2-[(5S)-ethoxymethyl-1-[7-fluoro-2-(5-fluoro-2-methoxyphenylamino)-6-benzoxazolylacetyl]-(2S)-pyrrolidinyl]-5-thiazolyl]propionic acid], the Ki is 34 nM.
On to `CO[C@H]1C[C@@H](c2cc(CCC(=O)O)on2)N(C(=O)Cc2cc(Cl)c(NC(=O)c3cn(C)c4ccccc34)cc2F)C1` [Example 31, 3-[3-[1-[5-Chloro-2-fluoro-4-(1-methyl-3-indolylcarbonyl)aminophenylacetyl]-(4S)-methoxy-(2S)-pyrrolidinyl]-5-isoxazolyl]propionic acid], for which the Ki is 5.8 nM.
For the compound `COC[C@@]1(c2ncc(CCC(=O)O)s2)C[C@H](OC)CN1C(=O)Cc1cc(Cl)c(NC(=O)c2cn(C)c3ccccc23)cc1Cl` [Example 133, 3-{2-[(2R,4S)-1-[2-(2,5-dichloro-4-{[(1-methyl-1H-indol-3-yl)carbonyl]amino}phenyl)acetyl]-4-methoxy-2-(methoxymethyl)pyrrolidinyl]thiazol-5-yl}propionic acid], the Ki is 4.5 nM.
The figure for `O=C(O)CCc1cnc([C@@H]2[C@@H](O)CCN2C(=O)Cc2ccc(Nc3nc4ccccc4o3)c(Cl)c2)s1` [Example 116, 3-[2-[1-[4-(2-Benzoxazolyl)amino-3-chlorophenyl]acetyl-(3S)-hydroxy-(2S)-pyrrolidinyl]-5-thiazolyl]propionic acid] is 40 nM; for `CCO[C@H]1CCN(C(=O)Cc2cc(Cl)c(NC(=O)c3cn(C)c4ccccc34)cc2F)[C@@H]1c1ncc(CCC(=O)O)s1` [Example 91, 3-[2-[1-[[5-Chloro-2-fluoro-4-(1-methyl-3-indolylcarbonylamino)phenyl]acetyl]-(3S)-ethoxy-(2S)-pyrrolidinyl]-5-thiazolyl]propionic acid] it is 4.1 nM; for `CO[C@H]1C[C@@H](c2ncc(CCC(=O)O)o2)N(C(=O)Cc2cc(Cl)c(NC(=O)c3cn(C)c4ccccc34)cc2Cl)C1` [Example 12, 3-[2-[1-[2,5-Dichloro-4-(1-methyl-3-indolylcarbonylamino)phenylacetyl]-(4S)-methoxy-(2S)-pyrrolidinyl]-5-oxazolyl]propionic acid] it is 18 nM.
The figure for `CCO[C@H]1CCN(C(=O)Cc2cc(Cl)c(NC(=O)c3csc4ccccc34)cc2Cl)[C@@H]1c1ncc(CCC(=O)O)s1` [Example 94] is 6.2 nM.
Turning to `Cn1cc(C(=O)Nc2cc(F)c(CC(=O)N3[C@H](c4ncc(CCC(=O)O)s4)C[C@@H]4CCCC[C@@H]43)cc2Cl)c2ccccc21` [Example 59, 3-[2-[1-[5-Chloro-2-fluoro-4-(1-methyl-3-indolylcarbonyl)aminophenylacetyl]-(2S)-octahydroindolyl]-5-thiazolyl]propionic acid], the Ki was 17 nM.
With `CO[C@@H]1C[C@@H](c2ncc(CCC(=O)O)s2)N(C(=O)Cc2cc(Cl)c(Nc3nc4ccccc4o3)cc2Cl)C1` [Example 124, 3-[2-[1-[4-(2-Benzoxazolyl)amino-2,5-dichlorophenyl]acetyl-(4R)-methoxy-(2S)-pyrrolidinyl]-5-thiazolyl]propionic acid], the inhibition constant (Ki) was 76 nM.
Consider `COc1ccccc1Nc1nc2ccc(CC(=O)N3C[C@@H](OC)C[C@H]3c3ncc(CCC(=O)O)o3)c(F)c2o1` [Example 17, 3-[2-[1-[[7-Fluoro-2-(2-methoxyphenylamino)-1,3-benzoxazol-6-yl]acetyl]-(4S)-methoxy-(2S)-pyrrolidinyl]-5-oxazolyl]propionic acid], for which the Ki is 15 nM.
Take `O=C(O)CCc1cnc([C@@H]2C[C@H](OC3CCC3)CN2C(=O)Cc2cc(Cl)c(NC(=O)c3coc4ccccc34)cc2F)s1` [Example 43, 3-[2-[1-[4-[(1-Benzofuran-3-ylcarbonyl)amino]-5-chloro-2-fluorophenylacetyl]-(4S)-cyclobutoxy-(2S)-pyrrolidinyl]-5-thiazolyl]propionic acid]: the inhibitory constant (Ki) was 2.9 nM.
On to `COc1cc(CC(=O)N[C@@H](CC(C)C)c2cc(CCC(=O)O)on2)ccc1NC(=O)Nc1ccccc1C` [CP664511], for which the Ki was 1.5 nM.
Turning to `O=C(O)CCc1cnc([C@@H]2C[C@H](F)CN2C(=O)Cc2cc(Cl)c(NC(=O)c3coc4ccccc34)cc2F)s1` [Example 22, 3-[2-[1-[[4-[(1-Benzofuran-3-ylcarbonyl)amino]-5-chloro-2-fluorophenyl]acetyl]-(4S)-fluoro-(2S)-pyrrolidinyl]-5-thiazolyl]propionic acid], the Ki was 0.23 nM.
As to `CCO[C@H]1CCN(C(=O)Cc2ccc3nc(Nc4cc(F)ccc4C)oc3c2F)[C@@H]1c1ncc(CCC(=O)O)o1` [Example 103, 3-[2-[1-[[7-Fluoro-2-(5-fluoro-2-methylphenyl)amino-6-benzoxazolyl]acetyl]-(3S)-ethoxy-(2S)-pyrrolidinyl]-5-oxazolyl]propionic acid], the Ki is 2.6 nM.
For `COC[C@@H]1CC[C@@H](c2ncc(CCC(=O)O)s2)N1C(=O)Cc1cc(Cl)c(NC(=O)c2cn(C)c3ccccc23)cc1F` [Example 53, 3-[2-[1-[5-Chloro-2-fluoro-4-(1-methyl-3-indolylcarbonyl)aminophenylacetyl]-(5S)-methoxymethyl-(2S)-pyrrolidinyl]-5-thiazolyl]propionic acid], the Ki was 16 nM.
Turning to `CO[C@H]1C[C@@H](c2ncc(CCC(=O)O)s2)N(C(=O)Cc2ccc(Nc3nc4c(Cl)cccc4s3)c(Cl)c2)C1` [Example 114, 3-[2-[1-[4-(4-Chloro-2-benzothiazolyl)amino-3-chlorophenyl]acetyl-(4S)-methoxy-(2S)-pyrrolidinyl]-5-thiazolyl]propionic acid], the inhibition constant Ki is 6.9 nM.
Then `CCO[C@H]1CCN(C(=O)Cc2cc(Cl)c(NC(=O)c3coc4ccccc34)cc2Cl)[C@@H]1c1ncc(CCC(=O)O)o1` [Example 102], with 17 nM.
